In patent publication US8247529B2, “Neoplasia targeting peptides and methods of using the same” (The Board of Trustees of the Leland Stanford Junior …, priority 2008, dated 2012):
“Also recorded” adds a separate entry of the source.

What was measured:
[1] = test system: Seg-1 cells (esophageal adenocarcinoma); experiment: Phage binding assay (cell binding of phage clones relative to insertless phage); settings: Seg-1 vs QhTERT, p<0.01
Procedure: Individual phage clones (2×10^11 pfu) were incubated at room temperature for 30 min with Segl and Q-hTERT cells. The columns represent the mean of measurements from three wells and the bars represent the standard deviation (SD). P-values for each group were calculated using student's t test.
According to the sequencing results some peptide sequence expressed on more than one phage clones. These phage clones had been amplified respectively for the binding assay. Seg-1 cell and Q-hTERT cell (None dysplasia Barrett's cell line) were growth in 6 well plate. 2×10^11 pfu each single clone phage were incubated with both cell in triple wells. Wild-type (no insert) phage (M13KE, New England Biolabs, Beverly, Mass.) was used as control. The incubation, two-step elution and tittering were done as mentioned above. […] Fold binding of each phage relative to none insert phage was measured. Different binding of each phage clone on Seg-1 and QhTERT were calculated using student's t test.

[2] = test system: OE21 cells (squamous esophagus carcinoma); experiment: Peptide binding on cell lines; settings: 100 μmol FITC-conjugated peptide, 15 min room temperature
Procedure: (§1) FITC-conjugated peptide (100 μmol) was incubated with Segl (Panel a), OE21 (Panel c), QhTERT (Panel d) cells. Peptide binding were found in plasma membrane of >90% of Seg1 cells (Panel a).
(§2) 3×10^4-5×10^4 Seg-1, OE21, QhTERT cells were grown in chamber slides.
(§3) Blocking of non-specific binding to these cells was performed by adding 200 μL of 1% BSA diluted in PBS for 30 min. The cells were then incubated with 100 μmol of the targeted FITC conjugated peptide in serum free media for 15 min in room temperature. The scrambled peptide had been used as control. Wash cells 3-time use 200 μL PBS/0.5% TWEEN 20 in room temperature. Cell were fixed by ice cold Acetone 90 second. Then mounted by Vectashield mounting medium with DAPI. Fluorescence images were collected with a confocal microscope (Nikon 1000) at 200×. The fluorescence intensity from the cells in 3 images were averaged to assess peptide binding.

[3] = test system: QhTERT (normal Barrett's) cells; experiment: Peptide binding on cell lines; settings: 100 μmol FITC-conjugated peptide, 15 min room temperature
Procedure: as §1, §2, §3

Seg1 cells = experiment: Competitive inhibition assay; format: binding; settings: unconjugated peptide 100, 500, 1000 μmol (5 or 10 times higher concentration) 15 min prior to FITC-conjugated peptide, P<0.01
Procedure: Unconjugated peptide was incubated with Seg1 cells 15 min prior to adding of FITC-conjugated peptide in three different concentrations. […] Error bars represent mean±s.e.m. for 3 images. *P<0.01.
Competitive inhibition of targeted peptide binding was evaluated by incubating the cells in culture with unconjugated (no FITC) peptide at concentrations of 100, 500, and 1000 μmol. Three fluorescence images were collected at 200× from each well of the chamber slide using the same gain and exposure time. Images selected for analysis met the following criteria: 1) 70-90% cell confluence, 2) away from the edge of each well, 3) low background binding on cell free area of slide, 4) No change in cellular morphology. The mean cell numbers under three 200× view were record to calculate the percentage of peptide binding cells. Quantification of the fluorescence intensities was done by NIH Image J software to calculate pixel value between each group under the same threshold. Differences in the mean fluorescence intensities were compared using a student's t test.

[4] = test system: Barrett's with high-grade dysplasia (HGD) tissue; experiment: Targeted peptide binding on esophageal mucosa (human tissue specimens)
Procedure: (§4) Specimens were incubated with 100 μmol FITC-conjugated peptide in PBS (Panels a, b, c, d). Hematoxylin and eosin staining (Panels e, f, g, h) was performed on adjacent sections to show the pathology diagnosis. In HGD tissue the binding site is a group of consecutive cells located in the lining of esophageal. In normal Barrett's mucosa the binding site is sporadic separated cells in some area of mucosa.
(§5) IRB approval was granted by the Stanford University Medical Center, the VA Palo Alto Health Care Systems, and El Camino Hospital. Human subjects with a history of Barrett's esophagus undergoing routine screening endoscopy were recruited for this study and informed consent was obtained. Subjects with coagulation abnormalities, or low tolerance for endoscopy were excluded from the study. Tissue specimens were collected using standard pinch biopsy from regions of endoscopically apparent Barrett's and squamous esophagus and duodenum mucosa. Histopathology was evaluated by two gastrointestinal pathologists in a blinded fashion according to common criteria (Goldblum, Mod Pathol 2003;16:316-24).
(§6) The tissue specimens were placed immediately after excision in an Eppendorf tube containin PBS at 4° C. PBS and incubated with100 μmol of targeted peptide ‘ASYNYDA’ for 15 minutes at room temperature. After being washed three times with PBS at 4° C., the specimens were embedded in OCT freezing compound (Sakura finetek USA), cut in 6 μm sections, and placed onto Poly-D-lysine coated slides. The tissue specimens were fixed in acetone at 4° C. for 90 seconds, counterstained with DAPI, and mounted in Vectashield. An adjacent serial section of the specimen was cut and stained with H&E for routine histology and comparison.
(§7) For each specimen 10 serial section were screened under microscope. Three highest intensity fluorescence images were collected at 400× using the same gain and exposure time. Fluorescence intensities of images were quantified by NIH Image J software to calculate pixel value between each sample under the same threshold (40, 255). Differences in the mean fluorescence intensities between four tissue types were compared using a student's t test.

[5] = test system: adjacent normal esophageal mucosa; experiment: as above; settings: 100 μmol FITC-conjugated peptide in PBS, 15 min, fresh biopsy
Procedure: as §4, §5, §6, §7

duodenal mucosa = experiment: as above; settings: 100 μmol FITC-conjugated peptide in PBS, 15 min, fresh biopsy
Procedure: as §4, §5, §6, §7

[6] = test system: normal (non-dysplastic) Barrett's tissue; experiment: as above; settings: 100 μmol FITC-conjugated peptide in PBS, 15 min, fresh biopsy
Procedure: as §4, §5, §6, §7

Seg-1 cells = experiment: Peptide binding on cell lines; settings: 100 μmol FITC-conjugated peptide, 15 min room temperature
Procedure: as §1, §2, §3

GIL hTERT(HGD) cells = experiment: Peptide binding on cell lines; settings: FITC-conjugated peptide
Procedure: as §3

TE7 cells = experiment: Peptide binding on cell lines; settings: FITC-conjugated peptide
Procedure: as §3

[7] = test system: esophageal adenocarcinoma within Barrett's esophagus; experiment: In vivo molecular imaging, small animal model (EGJ rat, fluorescence endoscopy); settings: topical 1 mL 100 μM, 5 min incubation, rinsed
Source text: In vivo molecular imaging has been performed in small animal models of esophageal neoplasia to localize binding by targeted peptides. A rigid endoscope for imaging the rat esophagus consists of a 9.5 Fr (3 mm) diameter rigid Hopkins II 0 deg telescope with a 11.5 cm working length (Karl Storz Veterinary Endoscopy, Goleta, Calif.). A 3 Fr (1 mm) diameter instrument channel is available to perform tissue biopsy. Fluorescence excitation light is produced with a 450 to 475 nm passband filter that can be manually placed into the optical path of a xenon (175 W) light source, and is delivered to the endoscope via a light guide. Fluorescence images were collected with 510 nm barrier filter to block the excitation light, and detected with a color CCD camera. The molecular imaging studies were performed in the surgically-altered (EGJ) rats after 36 weeks. The rats were fasted overnight, anesthetized using inhaled isoflurane, and placed in the supine position. The extremities and incisors were restrained to prevent injury to the animal. The endoscope was inserted into the distal esophagus using ˜1 to 2 ml of air injected through an instrument port to dilate the esophageal lumen. The FITC-labeled target peptide was topically administered through the instrument channel onto the distal esophagus in a 1 mL solution diluted in PBS at a concentration of 100 μM. After incubation for 5 minutes, excess peptide was rinsed off with tap water, and binding was evaluated by fluorescence. […] A complete examination usually lasts <2 minutes.

[8] = test system: high-grade dysplasia in Barrett's esophagus; experiment: Clinical imaging (fluorescence endoscopy of distal esophagus); format: in vivo; settings: human, topical ~3 ml 10 μM
Source text: Endoscopic images collected in vivo of distal esophagus in human subject with Barrett's esophagus and high grade dysplasia on white-light endoscopy (Panel a) and fluorescence imaging (Panel b).
A prototype endoscope was used to collect fluorescence images of peptide binding from human subjects with Barrett's esophagus and high-grade dysplasia using the target peptide labeled with FITC. With IRB approval and informed consent, human subjects with a history of Barrett's esophagus and biopsy proven high-grade dysplasia scheduled for endoscopic mucosal resection were recruited into the study. After esophageal intubation, a 10 second video was collected in the white light mode. Then, ˜3 ml of peptide at a concentration of 10 μM was administered topically to the distal esophagus using a mist spray catheter. After 5 minutes for incubation, excess peptide was gently rinsed off with water, and another 10 second video was collected of the peptide targeted fluorescence image. The mucosa of the distal esophagus was then removed by endoscopic mucosal resection. Each video stream was exported into individual frames.
(§8) No distinct architectural lesions can be appreciated. […] Targeted biopsies were collected from sites suspicious for HGD, non-dysplastic Barrett's esophagus. The specimens were embedded in OCT media, cooled to […], and cut into 10 μm horizontal sections on a cryostat.

[9] = test system: Barrett's mucosa with high-grade dysplasia; experiment: Confocal fluorescence of frozen sections of targeted biopsies after clinical imaging; format: binding; settings: biopsies after topical administration in human subjects, 400×
Procedure: (§9) Routine histology (H&E) of corresponding images is shown in Panel c and Panel d, magnification 400×.
as §8
(§10) The specimens were then evaluated for fluorescence on a tabletop confocal microscope, and an adjacent section was formalin fixed and stained with H&E for evaluation by two pathologists. […] Routine histology (H&E) of the corresponding images (Panels c and d) from adjacent frozen sections are also shown for purposes of comparison, magnification 400×.

[10] = test system: Barrett's mucosa with no dysplasia; experiment: as above; format: binding; settings: biopsies after topical administration in human subjects, 400×
Procedure: as §9, §8, §10

ASYNYDA
fluorescence intensity with Seg-1 than with QhTERT cells [1]: 5 times
peptide binding to OE21 cells [2]: didn't binding
peptide binding to QhTERT cells [3]: didn't binding
inhibition of FITC-conjugated peptide binding to Seg1 cells by unconjugated peptide (Seg1 cells): can be inhibited
inhibition of FITC-conjugated peptide binding to Seg1 cells by unconjugated peptide (Seg1 cells; listed as unconjugated peptide 17): could be inhibited
peptide binding to Barrett's with high-grade dysplasia tissue ([4]; 100 μmol FITC-conjugated peptide in PBS, 15 min, fresh biopsy): bound
quantization of peptide binding (fluorescence intensity, NIH Image J), HGD vs other tissues ([4]; HGD vs Barrett's, duodenal and normal esophageal mucosa, P<0.01): higher preferential bind on HGD than other tissues
peptide binding to adjacent normal esophageal mucosa [5]: did not bind
peptide binding to duodenal mucosa (duodenal mucosa): did not bind
peptide binding to normal Barrett's tissue [6]: bound

ASYNYDA-GGGSK-FITC [Peptide 17-FITC]
percentage of Seg-1 cells with peptide binding on plasma membrane (Seg-1 cells): > 90%
percentage of GIL hTERT(HGD) cells with peptide binding on cytoplasm (GIL hTERT(HGD) cells): 1%
percentage of TE7 cells with peptide binding on cytoplasm (TE7 cells): 37%
average target-to-background ratio [7]: 5±2
fluorescence at site of lesion after topical peptide ([7]; listed as FITC-labeled target peptide): Increased fluorescence intensity was observed at the site of the lesion
fluorescence at site of lesion after topical peptide ([7]; listed as target peptide): increased fluorescence intensity at the site of the lesion
fluorescence at site of lesion after topical peptide ([8]; 5 min incubation, rinsed, listed as FITC-labeled target peptide): increased fluorescence intensity at a site; also recorded: increased fluorescence intensity at the site of the lesion
target-to-background ratio (HGD vs non-dysplastic Barrett's metaplasia) ([8]; mean fluorescence of 5 independent regions): 1.52
binding to Barrett's mucosa with high-grade dysplasia (frozen section) ([9]; listed as FITC-labeled peptide): significant binding
binding to Barrett's mucosa with high-grade dysplasia (frozen section) ([9]; listed as target peptide): Significant binding
binding to Barrett's mucosa with no dysplasia (frozen section) [10]: minimal binding

YANSAYD [scrambled peptide-FITC]
peptide binding to Seg-1 cells (Seg-1 cells): did not bind on any cells
peptide binding to Seg-1 cells (Seg-1 cells; listed as Scrambled FITC-conjugated peptide): no binding
